# Measurements from ChEMBL document CHEMBL1122225, “Synthesis and platelet aggregation inhibiting activity of prostaglandin D analogues” (J Med Chem, 1983).
# Legend:
# [1] = organism: Homo sapiens; assay: In vitro inhibition of ADP-induced platelet aggregation in human platelet rich plasma.; assay type: functional
# [2] = Potency in gerbil colon stimulation assay compared to PGE1.; assay type: functional
# [3] = Relative potency with respect to PGE1 = 100 in rat blood pressure assay; assay type: functional
# [4] = Relative potency with respect to PGF2-alpha = 100 in rat blood pressure assay
IC50 [1],SMILES,Relative potency [2],Relative potency [3],Relative potency [4]
0.0032 µg/mL,CCCCC[C@H](O)/C=C/C1C(=O)C=C[C@@H]1C/C=C\CCCC(=O)O (stereo partly drawn),0.1,10,
0.0032 µg/mL,CC/C=C\C[C@H](O)/C=C/C1C(=O)C[C@H](O)[C@@H]1C/C=C\CCCC(=O)O (stereo partly drawn),1,10,
0.32 µg/mL,CCCCC[C@H](O)/C=C/C1C(=O)C[C@H](O)[C@@H]1CCCCCCC(=O)O (stereo partly drawn),3,0.1,
0.32 µg/mL,CCCCC[C@](C)(O)/C=C/C1C(=O)C[C@H](O)[C@@H]1C/C=C\CCCC(=O)O (stereo partly drawn),10,,32
1 µg/mL,CCCCC[C@H](O)/C=C/C1C(=O)C[C@H](O)[C@@H]1C/C=C\CCCCCC(=O)O (stereo partly drawn),<0.1,,
0.001 µg/mL,CCCCC[C@H](O)/C=C/C1C(=O)CC[C@@H]1C/C=C\CCCC(=O)O (stereo partly drawn),1,10,
0.1 µg/mL,CCCCC[C@H](O)C/C=C1/C(=O)C[C@H](O)[C@@H]1C/C=C\CCCC(=O)O,1,10,
0.0001 µg/mL,CCCCC[C@H](O)/C=C/C1C(=O)CC(O)[C@@H]1C/C=C\CCCC(=O)O (stereo partly drawn),0.3,10,
0.0032 µg/mL,CCCCC[C@H](O)/C=C/[C@H]1C(=O)C[C@H](O)[C@@H]1C/C=C/CCCC(=O)O [[3H]PGD2],3,10,
0.032 µg/mL,CCCCC[C@H](O)/C=C/C1C(=O)C[C@H](O)[C@@H]1CCOCCCC(=O)O (stereo partly drawn),0.3,,

# Continued, compound first:
SMILES,IC50 [1],Relative potency [2],Relative potency [3],Relative potency [4]
CCCCC[C@H](O)CCC1C(=O)C[C@H](O)[C@@H]1CCCCCCC(=O)O (stereo partly drawn),3.2 µg/mL,0.1,,0.3
CCCCC(C)(C)[C@H](O)/C=C/C1C(=O)C[C@H](O)[C@@H]1C/C=C\CCCC(=O)O (stereo partly drawn),,3,,32
CCCCC[C@@H]1/C=C\C2C(=O)CC(O)[C@@H]2C/C=C\CCCC(=O)O1 (stereo partly drawn),1 µg/mL,0.1,0.1,
CCCCC/C=C/C=C1/C(=O)C[C@H](O)[C@@H]1C/C=C\CCCC(=O)O,0.32 µg/mL,<0.1,0.1,
O=C(O)CCC/C=C\C[C@@H]1C(/C=C/[C@@H](O)CCc2ccccc2)C(=O)C[C@@H]1O (stereo partly drawn),3.2 µg/mL,10,,32
CCCCC[C@H](O)/C=C/C1C(=O)CC2OC(=O)CCC/C=C\C[C@@H]21 (stereo partly drawn),0.032 µg/mL,0.3,1,
CCCCC[C@](C)(O)/C=C/C1C(=O)C=C[C@@H]1C/C=C\CCCC(=O)O (stereo partly drawn),1 µg/mL,0.3,0.1,
